Results: the NIST ThermoML archive (doi:10.1021/acs.jced.8b01135)

Assay: xn = mol fraction of the nth substance listed
Details: 102 kPa, Liquid; for speed of sound: Frequency=3 MHz, Single path-length method; for mass density: Vibrating tube method; for viscosity: Concentric cylinders viscometry

CCCCCCCCCCC1CCCCC1 [decylcyclohexane] + CCCCCCCCCCCC
Details	mass density [kg/m3]	speed of sound [m/s]	viscosity [mPa·s]
288.15 K, x1 = 0.1003	760.76	1329.7	–
288.15 K, x1 = 0.2194	770.26	1344	–
288.15 K, x1 = 0.3002	776.43	1353.5	–
288.15 K, x1 = 0.4004	783.8	1364.7	–
288.15 K, x1 = 0.4999	790.8	1375.6	–
288.15 K, x1 = 0.5993	797.51	1386.2	–
288.15 K, x1 = 0.7001	804.03	1396.3	–
288.15 K, x1 = 0.8005	810.28	1406.3	–
288.15 K, x1 = 0.8991	816.18	1415.8	–
288.15 K, x1 = 1	821.93	1425.2	–
293.15 K, x1 = 0.1003	757.16	1310.3	1.7
293.15 K, x1 = 0.2194	766.69	1324.7	1.98
293.15 K, x1 = 0.3002	772.89	1334.2	2.19
293.15 K, x1 = 0.4004	780.28	1345.7	2.48
293.15 K, x1 = 0.4999	787.31	1356.6	2.82
293.15 K, x1 = 0.5993	794.05	1367.1	3.2
293.15 K, x1 = 0.7001	800.58	1377.5	3.64
293.15 K, x1 = 0.8005	806.85	1387.5	4.13
293.15 K, x1 = 0.8991	812.78	1397.1	4.68
293.15 K, x1 = 1	818.54	1406.4	5.34
298.15 K, x1 = 0.1003	753.56	1290.9	–
298.15 K, x1 = 0.2194	763.13	1305.4	–
298.15 K, x1 = 0.3002	769.34	1315	–
298.15 K, x1 = 0.4004	776.76	1326.8	–
298.15 K, x1 = 0.4999	783.81	1337.8	–
298.15 K, x1 = 0.5993	790.58	1348.6	–
298.15 K, x1 = 0.7001	797.13	1358.8	–
298.15 K, x1 = 0.8005	803.42	1368.8	–
298.15 K, x1 = 0.8991	809.36	1378.5	–
298.15 K, x1 = 1	815.16	1387.7	–
303.15 K, x1 = 0.1003	749.96	1271.8	1.43
303.15 K, x1 = 0.2194	759.57	1286.4	1.65
303.15 K, x1 = 0.3002	765.8	1296	1.79
303.15 K, x1 = 0.4004	773.24	1308.1	2.02
303.15 K, x1 = 0.4999	780.31	1319.1	2.27
303.15 K, x1 = 0.5993	787.1	1329.7	2.55
303.15 K, x1 = 0.7001	793.68	1340.2	2.88
303.15 K, x1 = 0.8005	799.99	1350.4	3.23
303.15 K, x1 = 0.8991	805.95	1360.1	3.63
303.15 K, x1 = 1	811.78	1369.1	4.09
313.15 K, x1 = 0.1003	742.75	1234.1	1.21
313.15 K, x1 = 0.2194	752.43	1248.9	1.39
313.15 K, x1 = 0.3002	758.71	1258.7	1.49
313.15 K, x1 = 0.4004	766.19	1271	1.67
313.15 K, x1 = 0.4999	773.32	1282.2	1.87
313.15 K, x1 = 0.5993	780.16	1292	2.08
313.15 K, x1 = 0.7001	786.78	1303.7	2.33
313.15 K, x1 = 0.8005	793.13	1313.9	2.6
313.15 K, x1 = 0.8991	799.14	1323.7	2.89
313.15 K, x1 = 1	805.02	1332.8	3.23
323.15 K, x1 = 0.1003	735.51	1197.2	1.04
323.15 K, x1 = 0.2194	745.28	1212.3	1.19
323.15 K, x1 = 0.3002	751.59	1222.1	1.29
323.15 K, x1 = 0.4004	759.13	1234.7	1.41
323.15 K, x1 = 0.4999	766.31	1246	1.56
323.15 K, x1 = 0.5993	773.2	1257	1.73
323.15 K, x1 = 0.7001	779.88	1267.7	1.92
323.15 K, x1 = 0.8005	786.28	1278.1	2.13
323.15 K, x1 = 0.8991	792.33	1288	2.35
323.15 K, x1 = 1	798.26	1297.2	2.6
333.15 K, x1 = 0.1003	728.24	1161.3	0.904
333.15 K, x1 = 0.2194	738.08	1176.5	1.02
333.15 K, x1 = 0.3002	744.46	1186.5	1.11
333.15 K, x1 = 0.4004	752.05	1199.1	1.2
333.15 K, x1 = 0.4999	759.29	1210.6	1.32
333.15 K, x1 = 0.5993	766.23	1221.8	1.46
333.15 K, x1 = 0.7001	772.96	1232.7	1.61
333.15 K, x1 = 0.8005	779.42	1243.2	1.78
333.15 K, x1 = 0.8991	785.51	1253.2	1.95
333.15 K, x1 = 1	791.49	1262.7	2.15
